# From patent US20260240792A1, “COMPOSITIONS FOR TREATING 5-HT2 CONDITIONS AND METHODS OF USING THE SAME” (Board of Supervisors of Louisiana State University and …, priority 2022, published 2026)
# Entries after “also recorded” stand apart in the source; their conditions may differ.
# Columns and labels:
# rabbits [1] = test: Tear film production by Schirmer's Tear Flo Strips in rabbits; format: in vivo, rabbit
# Description: Each eye of each rabbit was assessed for tear film production by Schirmer's Tear Flo Strips at a 30 second interval of analysis. Tear measures were evaluated by a digital caliper to determine mm of tears collected.
# (§1) 3 days post treatment at the same time initial measures were made, IOP and tear film production were re-assessed to examine if effects were sustained post 1 treatment.
# (§2) Effects of Compound 1 on Tear Production: Current IOP lowering glaucoma drugs eventually have effects on tear production resulting in dry eye conditions. Further, there are additional associations between dry eye and glaucoma, with co-incidence of the two conditions quite common. […] Selective 5-HT agonists/antagonists can reverse symptoms of dry eye-a very large ophthalmic market. The effects of Compound 1 on tear film production (see, for example, FIG. 6 panels A-D) were therefore assessed by a Schirmer's Tear Flo strip and measured using a digital micrometer caliper.
# (§3) • Rabbits were assessed for clinically clear eyes by slit lamp ophthalmic scoring. All eyes of all rabbits were normal. • Each eye of each rabbit was then assessed for initial IOP by tonometer. • Each eye of each rabbit was assessed for tear film production by Schirmer's Tear Flo Strips at a 30 second interval of analysis. Tear measures were evaluated by a digital caliper to determine mm of tears collected. • Rabbits were sorted into two groups attempting to balance IOP numbers (one higher, one lower animal per group). • Following animals were treated with 50 μL of Control ophthalmic BSS/0.5% CMC or 0.01% R-DOI HCl in ophthalmic BSS/0.5% CMC. • Any apparent behavioral changes were continuously monitored over the next 2.5 hours. • IOP determinations were made at 30 minutes, 1 hour, 2 hours and 3 hours, 5 hours, 7 hours and 24 hours-eyes were examined closely for any adverse effects during these IOP measures. • 7 hours post treatment when IOP returned to control levels tear film production was assessed (see, for example, FIG. 9).
# as §2, with “R-DOI” for “Compound 1”, “conditions” for “conditions quite”, “production” for “production (see, for example, FIG. 6 panels A-D)”
# rabbits [2] = test: Intraocular pressure (IOP) after topical ocular dosing in rabbits; format: in vivo, rabbit
# Description: The IOP was assessed as a component of clinical outcomes for the animals in the studies described herein. The table below represents the effect of R-DOI on IOP 2 hours after dosing with the indicated concentration of R-DOI. Eyes were individually assessed and are indicated as IOP for the right (OD) or left (OS) eye.
# Each eye of each rabbit was then assessed for initial IOP by tonometer.
# IOP determinations were made at 30 minutes, 1 hour, 1.5 hours and 2.5 hours-eyes were examined closely for any adverse effects during these IOP measures.
# as §1
# The IOP was assessed via a TonoVet rebound Tonometer. The tables herein (see, for example, FIG. 4) represent the effect of Compound 1 on IOP at time intervals within the first 2.5 hours after dosing with 0.01% Compound 1 in BSS with 0.5% CMC. Eyes were individually assessed and are indicated as IOP for the right (OD) or left (OS) eye. 3 days post treatment eyes were reassessed for IOP changes to see if the effects of treatment lasted over a prolonged period.
# as §3
# The IOP was assessed via a TonoVet rebound Tonometer. The tables herein (see, for example, FIGS. 10-11) represents the effect of R-DOI on IOP at the defined time intervals Eyes were individually assessed and are indicated as IOP for the right (OD) or left (OS) eye.
# [3] = Solubility in ophthalmic eye drop (BSS, 0.5% CMC); format: physicochemical; conditions: 0.1% (5 mg/5 mL) in BSS with 0.5% CMC, pH 7.0
# Description: Non-Limiting, Exemplary Findings Discussed within: • The NCE Compound 1 was formulated within an ophthalmic eye drop with BSS and 0.5% carboxymethylcellulose (CMC) at percentages of 0.1% (5 mg/5 ml) and lower with a pH of 7.0.
# • The R-DOI HCl was formulated within an ophthalmic eye drop with BSS and 0.5% carboxymethylcellulose (CMC) at percentages of 0.1% (5 mg/5 mL) and lower with a pH of 7.0.
# rabbits [4] = test: Topical ocular dosing in rabbits: observation of CNS, systemic, ocular and behavioral effects, ocular tolerability; format: in vivo, rabbit; conditions: 0.01%
# Description: Apparent Ocular Irritability • b. Induction of Inflammation • c. Reduction of Corneal Barrier Integrity • d. Dry Eye or Excessive Tearing • e. Induction of Neovascularization • f. Induction of Scleral Reddening
# Parameters Assessed during 2 hour Observation Window (see, for example, FIG. 1):
# Two studies were performed to determine at what dose between 0.01% and 0.1% were behavioral and/or systemic effects observed. 50 μL doses at 0.01%, 0.05%, and 0.075% per eye applied and assessments were made as indicated herein.
# The application of most topical eye drops requires repeatedly dosing up to 9 times per day in order to maintain efficacy across the course of waking hours and have efficacious levels available during sleeping hours. The effects of repeated ocular dosing of R-DOI were assessed in a similar manner as described herein, with the exception that doses of 0.01% or 0.05% were applied repeatedly as outlined herein:
# Animals from the acute dosing were continued through the repeated dosing study. Animals were dosed at the indicated concentration 2 times on day 1 and then dosed 4 times per day for 3 subsequent days. Doses were administered at 50 μl per eye into both eyes of the animal.
# Rabbits were assessed for clinically clear eyes by slit lamp ophthalmic scoring. All eyes of all rabbits were normal.
# Following balancing animals were treated with 50 μL of Control ophthalmic BSS/0.5% CMC or 0.01% Compound 1 in ophthalmic BSS/0.5% CMC.
# Any behavioral changes were continuously monitored over the next 2.5 hours (FIG. 3).
# We can determine if a single dose of the ocular composition of 0.01% R-DOI with 0.5% carboxymethylcellulose in ophthalmic BSS: • 1. Reproduced previous findings that R-DOI had IOP depressing effects. • 2. Produced any readily observable behavioral effects. • 3. Was tolerated by the eye without adverse ocular effects, including absence of: • a. Apparent Ocular Irritability • b. Induction of Inflammation • c. Dry Eye or Excessive Tearing • d. Induction of Scleral Reddening • 4. Reduced IOP • 5. Maintained Reduction in IOP • 6. Increased Tear Film Production
# as §3
# [5] = tested on: TGF-Induced SMAD-mediated signaling; test: TGF-β induced SMAD-mediated signaling, dual luciferase reporters; format: cell-based
# Normal Human Fibroblasts = test: TGF-β transformation of normal human fibroblasts to myofibroblasts; format: cell-based; conditions: TGF-β treated human fibroblasts
# C6 glioma cells = conditions: cocktail of TNF-α and INF-γ, read-out: IC50 for block of LPS and cytokine stimulated nitrite accumulation; cited from earlier work
# 5-HT2A receptors = 5-HT2A receptors (Homo sapiens, UniProt P28223); conditions: cited from earlier work
# Chain of 5-HT2A receptors (P28223 whole entry): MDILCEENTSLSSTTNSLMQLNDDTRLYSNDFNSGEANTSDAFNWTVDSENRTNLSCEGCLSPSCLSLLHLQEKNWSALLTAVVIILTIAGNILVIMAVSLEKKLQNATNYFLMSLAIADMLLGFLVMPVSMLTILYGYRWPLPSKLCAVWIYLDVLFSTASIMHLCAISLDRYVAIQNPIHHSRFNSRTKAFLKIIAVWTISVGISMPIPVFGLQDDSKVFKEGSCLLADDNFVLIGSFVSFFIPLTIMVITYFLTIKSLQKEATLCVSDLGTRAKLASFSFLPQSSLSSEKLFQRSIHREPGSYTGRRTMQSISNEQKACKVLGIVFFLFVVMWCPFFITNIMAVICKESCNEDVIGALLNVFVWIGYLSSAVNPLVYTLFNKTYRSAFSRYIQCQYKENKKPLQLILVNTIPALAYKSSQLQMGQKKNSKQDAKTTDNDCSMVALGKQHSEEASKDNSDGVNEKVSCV
smiles,measurement,setting,value
COc1cc(CC(C)C)c(OC)cc1CCN [Compound 1],average increase in tear film production,"rabbits [1]; 0.01% single dose, 2.5 h post treatment",3.4 mm
same,average increase of tear film,"rabbits [1]; 0.01% single dose, 3 days post treatment",approximately 1.9 mm
same,tear production as measured by Schirmer's test,rabbits [1]; topical ocular dose,increased tear production; also recorded: significant increase in tear production
same,period for which decreased intraocular pressure was sustained post administration,"rabbits [2]; 0.01% single dose, non-diseased eye model",at least 3 days
same,IOP across the 2.5 hour observation window,"rabbits [2]; 0.01% single dose, 30 minutes, 1 hour, 1.5 hours, 2.5 hours",decreased IOP at all points across the 2.5 hour observation window
same,Return to Baseline IOP,rabbits [2]; post single dose administration of 0.01%,approximately 12 days
same,effect on intraocular pressure,rabbits [2]; single topical ocular dose,decreased intraocular pressure with a single dose
same,Solubility of the compound,[3],good with no remaining precipitates
same,"adverse events (ocular, systemic, behavioral or otherwise)","rabbits [4]; 50 μL per eye, both eyes, single dose",No readily apparent adverse events; also recorded: No observable changes; also recorded: no adverse or abnormal events observed
same,"acute ocular toxicity, irritability or adverse ocular reactions",rabbits [4]; acute single dosing,"did not exhibit any acute ocular toxicity, irritability or adverse ocular reactions; also recorded: did not display any signs of ocular irritability"
"COc1cc(CC(C)N)c(OC)cc1I (centres unmarked) [DOI, 2,5-Dimethoxy-4-iodoamphetamine]",TGF-Induced SMAD-mediated signaling,[5],Reduces TGF-Induced SMAD-mediated signaling
same,Transformation into Myofibroblasts,Normal Human Fibroblasts,Prevents Transformation into Myofibroblasts
same,IC50,C6 glioma cells,8 ± 3 nM
O=C(c1ccc(F)cc1)C1CCN(CCn2c(=O)[nH]c3ccccc3c2=O)CC1 [ketanserin],selectivity for 5-HT2A receptors over 5-HT2C receptors,5-HT2A receptors,~ 20 fold
